Experimental data taken from paper PMC8225045, “Chemical Synthesis and Structure-Activity Relationship Study Yield Desotamide a Analogues with Improved Antibacterial Activity” (Marine Drugs, 2021).
Converted amounts (≈) assume the structure as drawn. Like-named read-outs stand apart in the source and are kept apart here. Non-standard residues stand in square brackets, D forms with d. Residues, ends and D or L forms follow the SMILES beside them. aIle = CC[C@@H](C)[C@H](N)C(=O)O

Assays:
[1] = tested on: Staphylococcus haemolyticus LJH9; assay: microbe, parasite or virus in culture
Experimental: (§1) All the synthesized cyclopeptides (7–19) and the desotamide A (1) isolated from S. scopuliridis SCSIO ZJ46 were evaluated for antibacterial activities against a series of Gram-positive pathogens including […] Staphylococcus aureus ATCC29213, Bacillus subtilis BS01, Micrococcus luteus ML01, Enterococcus faecalis ATCC29212; 3 drug-resistant poultry pathogens Staphylococcus simulans LJH13, Enterococcus gallinarum LJH11, Staphylococcus haemolyticus LJH9; 4 clinical methicillin-resistant Staphylococcus aureus (MRSA) shhs-E1, MRSA 16339, MRSA 745524, MRSA 16162. Their antibacterial activities against the […] pathogens Escherichia coli ATCC 13,124 and clinical drug-resistant Klebsiella pneumonia 15580 were also assayed.
(§2) Ampicillin, vancomycin and polymyxin were used as control. The maximum test concentrations for all the compounds were 128 μg/mL.

[2] = tested on: Staphylococcus simulans LJH13; assay: microbe, parasite or virus in culture
Experimental: as §1, §2

[3] = tested on: Micrococcus luteus ML01; assay: microbe, parasite or virus in culture
Experimental: as §1, §2

[4] = tested on: Enterococcus gallinarum LJH11; assay: microbe, parasite or virus in culture
Experimental: as §1, §2

[5] = tested on: Staphylococcus aureus ATCC 29213; assay: microbe, parasite or virus in culture
Experimental: as §1, §2

[6] = tested on: MRSA 16339; assay: microbe, parasite or virus in culture
Experimental: as §1, §2

[7] = tested on: MRSA 745524; assay: microbe, parasite or virus in culture
Experimental: as §1, §2

[8] = tested on: MRSA 16162; assay: microbe, parasite or virus in culture
Experimental: as §1, §2

[9] = tested on: Enterococcus faecalis ATCC 29212; assay: microbe, parasite or virus in culture
Experimental: as §1, §2

[10] = tested on: Bacillus subtilis BS01; assay: microbe, parasite or virus in culture
Experimental: as §1, §2

[11] = tested on: methicillin-resistant Staphylococcus aureus (MRSA) shhsE1; assay: microbe, parasite or virus in culture
Experimental: as §1, §2

[12] = tested on: Gram-positive pathogens; settings: for MIC values against Gram-positive pathogens (summary over the panel): series of Gram-positive pathogens including MRSA, summary of Table 1; for Gram positive antibacterial activity for desotamides (in words): Figure 2
Experimental: as §1, §2

[13] = tested on: Klebsiella pneumoniae 15580
Experimental: as §1, §2

[14] = clinical MRSA shhsE1, two-fold serial dilution, Mueller-Hinton broth, 96-well plate, CLSI-based, maximum test concentration 128 μg/mL
[15] = Enterococcus gallinarum LJH11, drug-resistant poultry pathogen, two-fold serial dilution, Mueller-Hinton broth, 96-well plate, CLSI-based, maximum test concentration 128 μg/mL
[16] = Staphylococcus haemolyticus LJH9, drug-resistant poultry pathogen, two-fold serial dilution, Mueller-Hinton broth, 96-well plate, CLSI-based, maximum test concentration 128 μg/mL
[17] = Staphylococcus simulans LJH13, drug-resistant poultry pathogen, two-fold serial dilution, Mueller-Hinton broth, 96-well plate, CLSI-based, maximum test concentration 128 μg/mL
[18] = Micrococcus luteus ML01, two-fold serial dilution, Mueller-Hinton broth, 96-well plate, CLSI-based, maximum test concentration 128 μg/mL
[19] = Staphylococcus aureus ATCC 29213, two-fold serial dilution, Mueller-Hinton broth, 96-well plate, CLSI-based, maximum test concentration 128 μg/mL
[20] = clinical MRSA 16339, two-fold serial dilution, Mueller-Hinton broth, 96-well plate, CLSI-based, maximum test concentration 128 μg/mL
[21] = clinical MRSA 745524, two-fold serial dilution, Mueller-Hinton broth, 96-well plate, CLSI-based, maximum test concentration 128 μg/mL
[22] = clinical MRSA 16162, two-fold serial dilution, Mueller-Hinton broth, 96-well plate, CLSI-based, maximum test concentration 128 μg/mL
[23] = Enterococcus faecalis ATCC 29212, two-fold serial dilution, Mueller-Hinton broth, 96-well plate, CLSI-based, maximum test concentration 128 μg/mL
[24] = Bacillus subtilis BS01, two-fold serial dilution, Mueller-Hinton broth, 96-well plate, CLSI-based, maximum test concentration 128 μg/mL
[25] = clinical drug-resistant Klebsiella pneumoniae 15580, two-fold serial dilution, Mueller-Hinton broth, 96-well plate, CLSI-based, maximum test concentration 128 μg/mL
[26] = Staphylococcus haemolyticus, LJH9
[27] = Enterococcus gallinarum, GALLINARUM
[28] = Staphylococcus aureus, ATCC29213
[29] = Enterococcus faecalis, ATCC29212

Compound | MIC [1] [µg/mL] | MIC [2] [µg/mL] | MIC ([3]; ML01) [µg/mL] | MIC [4] [µg/mL] | MIC ([5]; ATCC 29213) [µg/mL] | MIC [6]; 16339 [µg/mL] | MIC [7]; 745524 [µg/mL] | MIC [8]; 16162 [µg/mL] | MIC ([9]; ATCC 29212) [µg/mL] | MIC ([10]; BS01) [µg/mL] | MIC [11, 14] [µg/mL] | Gram positive antibacterial activity for desotamides (in words) ([12]; summary) | MIC [13]; 15580 [µg/mL] | MIC [4, 15] [µg/mL] | MIC ([11]; methicillin-resistant shhsE1) [µg/mL] | further results
CC(C)C[C@@H]1NC(=O)[C@H](CC(N)=O)NC(=O)CNC(=O)[C@H](Cc2c[nH]c3ccccc23)NC(=O)[C@H](CC(C)C)NC(=O)[C@@H](CC(C)C)NC1=O [Compound 16, Desotamide A7] (cyclo(NL[dL]LWG)) | >128 | >128 | >128 | >128 | >128 | >128 | >128 | >128 | >128 | >128 | >128 | Inactive | >128 |  |  | MIC values against Gram-positive pathogens (summary over the panel) [12]: > 128 µg/mL
CC(C)C[C@@H]1NC(=O)[C@H](Cc2c[nH]c3ccccc23)NC(=O)[C@@H](CCCCN)NC(=O)[C@H](CC(N)=O)NC(=O)[C@H](C(C)C)NC(=O)[C@@H](CC(C)C)NC1=O [Compound 9, Wollamide B2] (cyclo([dK]WL[dL]VN)) | 32 (≈ 42.4 µM) | 16 (≈ 21.2 µM) | 16 (≈ 21.2 µM) |  | 32 (≈ 42.4 µM) | 32 (≈ 42.4 µM) | 32 (≈ 42.4 µM) | 32 (≈ 42.4 µM) | 64 (≈ 84.9 µM) | 16 (≈ 21.2 µM) | 32 (≈ 42.4 µM) |  | >128 | 128 (≈ 170 µM) |  | fold increase of anti-Gram-positive activity compared to wollamide B (7) ([12]; Gram-positive bacteria): 2–4 folds; Gram positive antibacterial activity for wollamides (in words) ([12]; summary, Figure 3): 2–4-Fold more active than 7
CC(C)C[C@@H]1NC(=O)[C@H](Cc2c[nH]c3ccccc23)NC(=O)[C@@H](CCCCN)NC(=O)[C@H](CC(N)=O)NC(=O)[C@H](CC(C)C)NC(=O)[C@@H](CC(C)C)NC1=O [Compound 17, Desotamide A8] (cyclo([dK]WL[dL]LN)) | 64 (≈ 83.3 µM) | 32 (≈ 41.7 µM) | 16 (≈ 20.8 µM) | >128 | 32 (≈ 41.7 µM) | 64 (≈ 83.3 µM) | 32 (≈ 41.7 µM) | 64 (≈ 83.3 µM) | 128 (≈ 167 µM) | 32 (≈ 41.7 µM) | 64 (≈ 83.3 µM) | Slightly less active than 1 | >128 |  |  | 
cyclo(Asn-Ile-D-Leu-Leu-Trp-D-Arg) (head to tail) [Compound 19, Desotamide A0] |  |  |  |  |  |  |  |  |  |  | 64 | Slightly less active than 1 |  | >128 |  | MIC [1, 16]: 64 µg/mL; MIC [2, 17]: 32 µg/mL; MIC [3, 18]: 32 µg/mL; MIC [5, 19]: 64 µg/mL; MIC [6, 20]: 128 µg/mL; MIC [7, 21]: 64 µg/mL; MIC [8, 22]: 64 µg/mL; MIC [9, 23]: 128 µg/mL; MIC [10, 24]: 32 µg/mL; MIC [13, 25]: >128 µg/mL
CC[C@@H](C)[C@@H]1NC(=O)[C@H](CC(N)=O)NC(=O)[C@@H](Cc2c[nH]cn2)NC(=O)[C@H](Cc2c[nH]c3ccccc23)NC(=O)[C@H](CC(C)C)NC(=O)[C@@H](CC(C)C)NC1=O [Compound 12, Desotamide A3] (cyclo(LW[dH]N[aIle][dL])) | >128 | >128 | >128 | >128 | >128 | >128 | >128 | >128 | >128 | >128 |  | Inactive | >128 |  | >128 | 
CC[C@H](C)[C@@H]1NC(=O)[C@H](CC(N)=O)NC(=O)[C@@H](Cc2c[nH]cn2)NC(=O)[C@H](Cc2c[nH]c3ccccc23)NC(=O)[C@H](CC(C)C)NC(=O)[C@@H](CC(C)C)NC1=O [Compound 14, Desotamide A5] (cyclo(I[dL]LW[dH]N)) | 64 (≈ 82.4 µM) | 64 (≈ 82.4 µM) | 64 (≈ 82.4 µM) | 128 (≈ 165 µM) | 64 (≈ 82.4 µM) | 64 (≈ 82.4 µM) | 64 (≈ 82.4 µM) | 64 (≈ 82.4 µM) | 64 (≈ 82.4 µM) | 64 (≈ 82.4 µM) |  | 2-Fold less active than 1 | >128 |  | 64 (≈ 82.4 µM) | fold less potent MIC value compared to 1 ([12]; Gram-positive bacteria, generally): 2 fold
CC[C@@H](C)[C@@H]1NC(=O)[C@H](CC(N)=O)NC(=O)[C@@H](CCCCN)NC(=O)[C@H](Cc2c[nH]c3ccccc23)NC(=O)[C@H](CC(C)C)NC(=O)[C@@H](CC(C)C)NC1=O [Compound 11, Desotamide A2] (cyclo(LW[dK]N[aIle][dL])) | >128 | >128 | >128 | >128 | >128 | >128 | >128 | >128 | >128 | >128 |  | Inactive | >128 |  | >128 | 
cyclo(Asn-Ile-D-Leu-Leu-Trp-D-His) (head to tail) [Compound 18, Desotamide A9] |  |  |  |  |  |  |  |  |  |  | >128 | Inactive |  | >128 |  | MIC [1, 16]: >128 µg/mL; MIC [2, 17]: >128 µg/mL; MIC [3, 18]: >128 µg/mL; MIC [5, 19]: >128 µg/mL; MIC [6, 20]: >128 µg/mL; MIC [7, 21]: >128 µg/mL; MIC [8, 22]: >128 µg/mL; MIC [9, 23]: >128 µg/mL; MIC [10, 24]: >128 µg/mL; MIC values against Gram-positive pathogens (summary over the panel) [12]: > 128 µg/mL; MIC [13, 25]: >128 µg/mL
CC1(C)S[C@@H]2[C@H](NC(=O)[C@H](N)c3ccccc3)C(=O)N2[C@H]1C(=O)O [Amp, ampicillin, reference compound] |  |  |  |  |  |  |  |  |  |  |  |  |  |  |  | MIC [1, 26]: 16 µg/mL (≈ 45.8 µM); MIC ([2]; Staphylococcus simulans, LJH13): 0.25 µg/mL (≈ 0.715 µM); MIC ([3]; Micrococcus luteus, ML01): 0.25 µg/mL (≈ 0.715 µM); MIC [4, 27]: 2 µg/mL (≈ 5.72 µM); MIC [5, 28]: 1 µg/mL (≈ 2.86 µM); MIC ([6]; Staphylococcus aureus, MRSA): 64 µg/mL (≈ 183 µM); MIC ([7]; Staphylococcus aureus, MRSA): 16 µg/mL (≈ 45.8 µM); MIC ([8]; Staphylococcus aureus, MRSA): 32 µg/mL (≈ 91.6 µM); MIC [9, 29]: 4 µg/mL (≈ 11.4 µM); MIC ([10]; Bacillus subtilis, BS01): < 0.0625 µg/mL; MIC ([11]; Staphylococcus aureus, MRSA): 64 µg/mL (≈ 183 µM)
CN[C@H](CC(C)C)C(=O)N[C@H]1C(=O)N[C@@H](CC(N)=O)C(=O)N[C@H]2C(=O)N[C@H]3C(=O)N[C@H](C(=O)N[C@H](C(=O)O)c4cc(O)cc(O)c4-c4cc3ccc4O)[C@H](O)c3ccc(c(Cl)c3)Oc3cc2cc(c3O[C@@H]2O[C@H](CO)[C@@H](O)[C@H](O)[C@H]2O[C@H]2C[C@](C)(N)[C@H](O)[C@H](C)O2)Oc2ccc(cc2Cl)[C@H]1O [Van, vancomycin, reference compound] |  |  |  |  |  |  |  |  |  |  |  |  |  |  |  | MIC [1, 26]: 2 µg/mL (≈ 1.38 µM); MIC ([2]; Staphylococcus simulans, LJH13): 0.25 µg/mL (≈ 0.173 µM); MIC ([3]; Micrococcus luteus, ML01): 0.25 µg/mL (≈ 0.173 µM); MIC [4, 27]: 8 µg/mL (≈ 5.52 µM); MIC [5, 28]: 0.5 µg/mL (≈ 0.345 µM); MIC ([6]; Staphylococcus aureus, MRSA): 0.25 µg/mL (≈ 0.173 µM); MIC ([7]; Staphylococcus aureus, MRSA): 0.5 µg/mL (≈ 0.345 µM); MIC ([8]; Staphylococcus aureus, MRSA): 0.5 µg/mL (≈ 0.345 µM); MIC [9, 29]: 4 µg/mL (≈ 2.76 µM); MIC ([10]; Bacillus subtilis, BS01): 0.125 µg/mL (≈ 0.0863 µM); MIC ([11]; Staphylococcus aureus, MRSA): 0.5 µg/mL (≈ 0.345 µM)
